Counter-ions that a name gives are not always drawn. Like-named read-outs stand apart in the source and are kept apart here.
Tests used:
S. aureus ATCC 6538 = test: MIC of antibiotics by broth microdilution (CLSI), reference culture; assay type: cell-based
Procedure: (§1) MIC was determined as per the guidelines of Clinical and Laboratory Standards Institute (CLSI 2012). Bacillus coagulans MTCC 25235 suspensions were prepared by suspending 18 h grown bacterial culture in sterile normal saline (0.89% NaCl wt/vol; Himedia, Mumbai India). The turbidity of the bacterial suspension was adjusted to 0.5 McFarland standards (equivalent to 1.5×10^8 colony forming units (CFU)/ml). The antibiotics stock solutions were prepared as per CLSI guidelines and 2-fold serial dilutions were prepared in broth medium (glucose yeast extract acetate broth [GYEA, HiMedia, Mumbai India for Bacillus coagulans MTCC 25235 and Mueller Hinton Broth [MHB, Difco Laboratories, Detroit, Mich USA] for S. aureus) in 100 μl volume in 96-well U bottom microtiter plates (BD Labware, NJ USA). The above-mentioned bacterial suspension was further diluted in the MHB and 100 μl volume of this diluted inoculum was added to each well of the plate resulting in the final inoculum of 5×10^5 CFU/ml in the well and the final concentration of antibiotics ranged from 0.0078 to 4 μg/ml. S. aureus ATCC 6538 was used as reference culture in this study. The plates were incubated at 37° C. for 24 h and were visually read for the absence or presence of turbidity. The minimum concentration of the compound concentration showing no turbidity was recorded as MIC.

[1] = system: Bacillus coagulans MTCC 25235; test: MIC of antibiotics by broth microdilution (CLSI), antibiotic resistance pattern; assay type: cell-based
Procedure: as §1

[2] = against S. aureus ATCC 6538, MHB, 37° C., 24 h
[3] = against Bacillus coagulans MTCC 25235, GYEA broth, 37° C., 24 h
[4] = Staphylococcus aureus, ATCC6538, against S. aureus ATCC 6538, MHB, 37° C., 24 h, read-out: MIC
[5] = Heyndrickxia coagulans, MTCC25235, against Bacillus coagulans MTCC 25235, GYEA broth, 37° C., 24 h, read-out: MIC
[6] = Staphylococcus aureus, ATCC6538, 24 h
[7] = Heyndrickxia coagulans, MTCC25235, 24 h

| Compound | MIC (S. aureus ATCC 6538; [4]) [µg/mL] | MIC [1, 5] [µg/mL] | further results |
| --- | --- | --- | --- |
| Kanamycin sulphate |  |  | MIC (S. aureus ATCC 6538; [2]): 7.0 µg/mL; MIC [1, 3]: 0.062 µg/mL |
| [H]/N=C(/N)N[C@H]1[C@H](O)[C@@H](O)[C@H](O[C@@H]2O[C@@H](C)[C@](O)(C=O)[C@H]2O[C@@H]2O[C@@H](CO)[C@H](O)[C@@H](O)[C@@H]2NC)[C@@H](N/C(N)=N\[H])[C@@H]1O [Streptomycin sulphate] | 4 | 0.062 |  |
| O=C(N[C@H](CO)[C@H](O)c1ccc([N+](=O)[O-])cc1)C(Cl)Cl [Chloramphenicol] | 2 | 0.031 |  |
| Gentamicin sulphate |  |  | MIC (S. aureus ATCC 6538; [2]): 0.25 µg/mL; MIC [1, 3]: 0.06 µg/mL |
| CN[C@H](CC(C)C)C(=O)N[C@H]1C(=O)N[C@@H](CC(N)=O)C(=O)N[C@H]2C(=O)N[C@H]3C(=O)N[C@H](C(=O)N[C@H](C(=O)O)c4cc(O)cc(O)c4-c4cc3ccc4O)[C@H](O)c3ccc(c(Cl)c3)Oc3cc2cc(c3O[C@@H]2O[C@H](CO)[C@@H](O)[C@H](O)[C@H]2O[C@H]2C[C@](C)(N)[C@H](O)[C@H](C)O2)Oc2ccc(cc2Cl)[C@H]1O [Vancomycin hydrochloride] |  |  | MIC (S. aureus ATCC 6538; [6]): 0.5 µg/mL; MIC [1, 7]: 0.25 µg/mL |
| CN(C)[C@@H]1C(O)=C(C(N)=O)C(=O)[C@@]2(O)C(O)=C3C(=O)c4c(O)cccc4[C@@](C)(O)[C@H]3C[C@@H]12 [Tetracycline hydrochloride] | 0.062 | 0.03 |  |
| CCC[C@@H]1C[C@@H](C(=O)N[C@@H]([C@H]2O[C@H](SC)[C@H](O)[C@@H](O)[C@H]2O)[C@H](C)Cl)N(C)C1 [Clindamycin hydrochloride] | 0.062 | 0.25 |  |
| CC[C@H]1OC(=O)[C@H](C)[C@@H](O[C@H]2C[C@@](C)(OC)[C@@H](O)[C@H](C)O2)[C@H](C)[C@@H](O[C@@H]2O[C@H](C)C[C@H](N(C)C)[C@H]2O)[C@](C)(O)C[C@@H](C)C(=O)[C@H](C)[C@@H](O)[C@]1(C)O [Erythromycin] |  |  | MIC (S. aureus ATCC 6538; [6]): 0.125 µg/mL; MIC [1, 7]: 0.125 µg/mL |
| CC1(C)S[C@@H]2[C@H](NC(=O)[C@H](N)c3ccccc3)C(=O)N2[C@H]1C(=O)O [Ampicillin sodium salt] | 0.031 | 0.125 |  |

Reference: patent US12257274B2, “Fructophilic lactic acid producing bacteria” (priority 2019, dated 2025)
